Test results from patent US6374907B1, “Hydrofluoroether as a heat-transfer fluid” (3M Innovative Properties Company, priority 1999, dated 2002).

Experiments:
Format in all cases: physicochemical
[1] = Physical properties of the fluids (boiling point, gel temperature, pour point); conditions: for boiling point: ambient / atmospheric pressure
Text: The pumping power calculation was made for various fluorinated fluids and is presented in TABLE 5, along with various physical properties of the fluids.

[2] = Thermal conductivity, transient hot-wire cell (ASTM D 2717-86); conditions: value used in place of n-C3F7CF(OC2H5)CF(CF3)2
Method: The thermal conductivity of n-C3F7CF(OC2H5)CF(CF3)2 was not measured. Instead, experimentally-determined values for the hydrofluoroether C4F9OC2H5 were used. These values were determined using a transient, hot-wire thermal conductivity cell over the temperature range of −50° C. to +50° C., according to ASTM D 2717-86. A platinum wire was used in the measurements. […] The thermal conductivity at 25° C. was 0.066 W/m° C.

[3] = Freezing or pour point measurement; conditions: 1 ml sample cooled with liquid nitrogen; for pour point: transparent glassy solid
Method: Freezing or pour points were measured for 3 related hydrofluoroether samples:
The freeze and or pour points were measured by cooling a 1 ml sample contained in a double walled glass tube. The outer tube was sealed at both ends and had side ports for the addition of nitrogen gas. The inner tube was sealed at one end. The annular space between the tubes was purged with dry nitrogen and sealed. The sample was introduced into the inner tube and sealed with a septum. The temperature of the sample contained in the inner tube was monitored with an Omega Model DP-41 (available from Omega Engineering, Inc., Stamford, Conn.) resistance thermal device inserted into the fluid. The apparatus was lowered into the dewar flask of liquid nitrogen.
If the material froze to a white solid, a freezing point is reported. If instead the material became a transparent glassy solid, a pour point is reported.
The resistance thermal device was not calibrated at temperatures less than −100° C.

[4] = Liquid density, Anton-Parr densitometer
Method: The liquid density of n-C3F7CF(OC2H5)CF(CF3)2 was measured from 10° C. to 90° C. using an Anton-Parr Model DMA58 densitometer with a DMA602 external cell. Densities below this temperature were obtained by linear extrapolation of the available data.

[5] = Distillation curve, head temperature vs. percent boiled; conditions: until over 95% of the fluid had boiled over
Method: H-GALDEN™ ZT-130 fluid (199 grams) was distilled from a 250 mL boiling flask using a 12 inch (30 cm) downward slanting shell-in-tube condenser into another 250 mL receiver flask. The weight of the fluid captured by the receiver was continuously monitored using an Ohaus Model TP4000D digital balance (available from Ohaus Corp., Florham Park, N.J.). The head temperature of the distillation apparatus was monitored using a type-J thermocouple. Both weight and temperature measurements were recorded using a LABVIEW SCXI automated data acquisition system (available from National Instruments Corp., Austin, Tex.) at regular intervals during the course of the distillation, which took 20.9 minutes.
The same experiment was repeated except that 211.9 g of n-C3F7CF(OC2H5)CF(CF3)2 was used in place of the H-GALDEN™ ZT-130 fluid and the distillation took place over an 11.5 minute time interval.
Thus, better temperature and viscosity control is possible when the n-C3F7CF(OC2H5)CF(CF3)2 is employed as a wide temperature range heat-transfer fluid.

[6] = Specific heat by differential scanning calorimetry (ASTM E 1269-90)
Method: The specific heat of n-C3F7CF(OC2H5)CF(CF3)2 was measured by differential scanning calorimetry according to ASTME 1269-90 over a temperature range of −50° C. to 50° C.

[7] = Kinematic viscosity, Cannon-Fenske viscometer
Method: The kinematic viscosity of n-C3F7CF(OC2H5)CF(CF3)2 was measured using a Cannon-Fenske viscometer over the temperature range −80° C. to 23° C. Data were regressed using methods outlined in ASTM Standard D 341-77.

Compound	Gel temp [1] [°C]	Initial Boiling point [1] [°C]	boiling point [1]	pour point [3]	further results
FC(F)(F)C(F)(F)C(F)(F)N(C(F)(F)C(F)(F)C(F)(F)F)C(F)(F)C(F)(F)C(F)(F)F [FC-3283, perfluoro(tripropylamine)]	−50	130	about 130 °C		pour point [1]: −50 °C
C4F9OC2H5					thermal conductivity at 25° C. [2]: 0.066 W/m° C.
CCOC(F)(C(F)(F)C(F)(F)F)C(F)(C(F)(F)F)C(F)(F)F (stereo not drawn) [n-C2F5CF(OC2H5)CF(CF3)2]					freeze point ([3]; froze to a white solid): −70 °C
CCOC(F)(C(F)(F)C(F)(F)C(F)(F)C(F)(F)F)C(F)(C(F)(F)F)C(F)(F)F (stereo not drawn) [n-C4F9CF(OC2H5)CF(CF3)2]				−83 °C	
CCOC(F)(C(F)(F)C(F)(F)C(F)(F)F)C(F)(C(F)(F)F)C(F)(F)F (stereo not drawn) [n-C3F7CF(OC2H5)CF(CF3)2, 3-ethoxy-perfluoro(2-methylhexane)]	−100	128	128 °C	less than −100 °C	Liquid Density at 25° C. [4]: 1614 kg/m^3; change of boiling point during distillation [5]: remained unchanged; Specific Heat at 25° C. [6]: 1128 J/kg° C.; Kinematic Viscosity at 25° C. [7]: 0.77 centistokes
